According to patent US20110229878A1, “HUMAN CONSENSUS SODIUM-IODIDE SYMPORTER REPRESSOR (NIS-REPRESSOR) BINDING SITE” (priority 2010, published 2011):

Columns and labels:
[1] = tested on: chromatin compaction; settings: previous genomic DNase I digestion studies (Li et al. 2007); cited from earlier work
[2] = tested on: NIS-repressor; test: EMSA pattern using KAK1 nuclear extract after epigenetic agents; type: binding, human
Protocol: EMSA: EMSA is carried out as follows: 3 μL nuclear extract, 1 μL end-labeled probe, 1 μL Poly(dI-dC)-Poly(dI-dC) (0.01 U/μL in 100 mM KCl, 20 mM HEPES, pH 8.0), 1 μL Salmon sperm DNA (500 ng/μL in nuclease-free water), 5 μL 4×EMSA buffer (400 mM KCl, 80 mM HEPES, 0.8 mM EDTA, 80% glycerol, 0.5 mM DTT) are mixed and distilled nuclease-free water is added to bring the reaction mix to 18 μL. The mixture is incubated on ice for 30 minutes, followed by addition of 2 μL of loading buffer (1×EMSA buffer, 0.25% Bromophenol Blue). A 7% non-denaturing PAGE gel is pre-run in 0.5×TBE (5.4 g/L Tris base, 2.75 g/L boric acid, 1 mM EDTA, pH 8.) for 30 minutes at 100V. The entire 20 μL EMSA reaction is loaded into one well of the polyacrylamide gel and run at 100V until the Bromophenol Blue dye has migrated to the end of the gel. The gel is dried on DEAE paper using a standard gel dryer and the dried gel is exposed to X-ray film. A retarded signal relative to free end-labeled probe indicates athe presence of a positive protein-probe interaction complex. When un-labeled DNA probe is added in the EMSA reaction mixture, loss of EMSA signal indicates the signal is probe-specific.

[3] = tested on: NIS transcription; settings: Venkataraman et al. 1999; cited from earlier work
[4] = tested on: hNIS; test: Endogenous hNIS mRNA / transcription in thyroid cancer cells (cell line not given); type: cell-based, human
Description: Multiple cellular and nuclear factors are reported to be important for hNIS transcription, including: TSH (thyrotropin)/receptor (TSHr) (Riedel, et al. 2001), TTF-1 (Schmitt, et al. 2001), and Pax-8 (Pasca di Magliano, et al. 2000), but there are no clear examples of repressing transcription factors in thyroid cells or thyroid carcinomas. […] We also characterized NIS-repressor and investigated the identities of its components and mechanisms of its activity. This involved defining NRBS-P to a narrower region of hNIS promoter and utilizing it to probe nuclear extract, analyzing the probe-bound proteins with liquid chromatography coupled with tandem mass spectrometry (LC/MS/MS), to characterize NIS-repressor components. […] Pharmacological inhibition of PARP-1 activity with PJ34, a PARP-1 inhibitor, stimulated endogenous hNIS mRNA levels, providing evidence that PARP-1 acts as a negative regulatory factor for hNIS transcription and is a likely component of the NIS-repressor complex.
In summary, a second core sequence in the human sodium-iodine symporter (hNIS) promoter, NRBS-D, which is a binding site for a trans-active transcriptional repressor, NIS-repressor has been defined. […] A known inhibitor of PARP-1 enzymatic activity, PJ34, causes increased endogenous transcription of hNIS in genotypically verified thyroid cancer cells.

[5] = tested on: NIS promoter constructs; test: Luciferase activity from NIS promoter constructs; type: cell-based, human
Description: (§1) Furthermore. […] PJ34 inhibition of PARP1 enzymatic activity may compromise the assembly, stability, or activity of the NIS-repressor protein complex.

[6] = tested on: hNIS transcription in Cal-62 cells; test: Endogenous hNIS transcription in Cal-62 cells; type: cell-based, human
Description: as §1

[7] = tested on: hNIS transcription in KAK1 cells; test: Endogenous hNIS transcription in KAK1 cells; type: cell-based, human
Description: as §1

[8] = tested on: NIS-repressor (KAK1 nuclear extract); test: EMSA competition against radiolabeled Probe-A (NRBS-P), KAK1 nuclear extract; type: binding, human; settings: 60× unlabeled annealed double-stranded oligonucleotide
Description: FIGS. 2A and 2B show the results of EMSA analysis followed by […] to define the core sequence for NRBS-D and cross competition of NRBS-D with NRBS-P. FIG. 2A depicts EMSA using KAK1 nuclear extract probed with radiolabeled SHIFT-4 containing NRBS-D in lanes 2 to 15. Unlabeled (30×) SHIFT-4, 4.1, 4.4, 4.2, 4.3, 4.5, 4.6, 4.7, and Probe-A were included in EMSA reactions in lanes 3, 4, 5, 6, 7, 11, 12, 13, and 15, respectively. The unlabeled (60×) annealed double-stranded oligonucleotides ds-411, ds-412, ds-413, and Comp-1 were added to the EMSA reactions in lanes 8, 9, 10, and 14, respectively. Lane 2 had no additional unlabeled competitor, and lane 1 contained radiolabeled SHIFT-4 probe only. In FIG. 2B, KAK1 nuclear extract was probed with radiolabeled Probe-A. The unlabeled 30× Probe-A, 60× annealed double-stranded Comp-1, and 60× annealed double-stranded ds-414 were added in EMSA reactions in lane 3, 4, and 5, respectively. The arrows point to the probe-specific bands.
EMSA: EMSA is carried out as follows: 3 μL nuclear extract, 1 μL end-labeled probe, 1 μL Poly(dI-dC)-Poly(dI-dC) (0.01 U/μL in 100 mM KCl, 20 mM HEPES, pH 8.0), 1 μL Salmon sperm DNA (500 ng/μL in nuclease-free water), 5 μL 4×EMSA buffer (400 mM KCl, 80 mM HEPES, 0.8 mM EDTA, 80% glycerol, 0.5 mM DTT) are mixed and distilled nuclease-free water is added to bring the reaction mix to 18 μL. […]

Compound | effect on chromatin compaction [1] | effect on EMSA pattern [2] | NIS transcription [3] | also measured
Nc1ncn([C@@H]2O[C@H](CO)[C@@H](O)[C@H]2O)c(=O)n1 [5-azacytidine] | failed to demonstrate any effect | did not alter | restore | –
CN(C)CC(=O)Nc1ccc2[nH]c(=O)c3ccccc3c2c1 [PJ34] | – | – | – | endogenous transcription of hNIS ([4]; genotypically verified thyroid cancer cells): increased; endogenous hNIS mRNA levels ([4]; pharmacological inhibition of PARP-1 activity): stimulated; luciferase activity from NIS promoter constructs [5]: effectively stimulated; endogenous hNIS transcription [6]: stimulated; endogenous hNIS transcription [7]: stimulated
CCCC(=O)[O-].[Na+] [sodium butyrate] | failed to demonstrate any effect | did not alter | restore | –
ds-414: annealed double-stranded oligonucleotide 5′-ccttgttacagatggggaaactaaggccca-3′, −987 to −958 (SEQ ID NO.: 6) (sense CCTTGTTACAGATGGGGAAACTAAGGCCCA; annealed double-stranded unlabeled competitor, further chemistry not given here) | – | – | – | competition against radiolabeled Probe-A in EMSA [8]: strong competition
